The source of these data is US6451805B1, “Substituted pyrazole derivatives for the treatment of cardiocirculatory diseases” (Bayer Aktiengesellschaft, priority 1999, dated 2002).

One series concerns soluble guanylate cyclase. As to the kind of experiment: Stimulation of soluble guanylate cyclase in primary endothelial cells (intracellular cGMP). It counts as cell-based. The note with it: primary rabbit aortic endothelial cells, test substance final concentration 1 μM, 10 min incubation, with or without NO donor (SNP 1 μM). Here is the method:
(§1) To determine the cardiovascular actions, the following investigations were carried out: in in vitro investigations on cells of vascular origin, the influx on guanylate cyclase-dependent cGMP formation was tested with and without NO donor. The anti-aggregatory properties were shown on human platelets stimulated with collagen. The vasorelaxant action was determined in rabbit aortal rings precontracted with phenylephrine. The hypotentive action was investigated in anaesthetized rats.
Primary endothelial cells were isolated from rabbit aortas by treatment with collagenase soln. The cells were then cultured in culture medium at 37° C./5% CO2 until confluence was reached. For the investigations, the cells were passaged, inoculated into 24-hole cell culture plates and subcultured until reaching confluence (˜2×10^5 cells/hollow). For the stimulation of endothelial guanylate cyclase, the culture medium was aspirated and the cells were washed once with Ringer solution. After removing the Ringer solution, the cells were incubated for 10 minutes at 37° C./5% CO2 in stimulation buffer with or without NO donor (sodium nitroprusside, SNP, 1 μM). […] The supernatants containing the intracellular cGMP were then removed and the cGMP concentration was determined by means of the cGMP-SPA system (Amersham Buchler, Brunswick).
Take `O=Cc1ccc(-c2nn(Cc3ccccc3F)c3nc(O)ccc23)o1` [Example 32]: the “cGMP increase (%)” value was found to be 135%.

Another series deals with anaesthetized rats. In words: Blood pressure measurements in anaesthetized rats. It counts as in vivo, rat. Particulars: male Wistar rats, oral, dose 10 mg/kg. Here is the method:
as §1
Male Wistar rats having a body weight of 300-350 g are anaesthetized with thiopental (100 mg/kg i.p.) After tracheotomy, a catheter is inserted in the femoral artery for blood pressure measurement. The substances to be tested are administered orally in various doses by means of stomach tube as a suspension in Tylose solution.
For `OCc1ccc(-c2nn(Cc3ccccc3)c3ncccc23)o1` [Example 13, 1-Benzyl-3-(5-hydroxymethyl-2-furyl)-1-H-pyrazolo[3,4-b]pyridine], the “Max blood pressure fall” value is −13 mm Hg and the “Time (of max blood pressure fall)” value worked out at 60 min.

Staying with this series, now noted: male Wistar rats, oral, dose 30 mg/kg.
Take `OCc1ccc(-c2nn(Cc3ccccc3)c3ncccc23)o1` [Example 13, 1-Benzyl-3-(5-hydroxymethyl-2-furyl)-1-H-pyrazolo[3,4-b]pyridine]: the “Max blood pressure fall” value is recorded as −23 mm Hg and the “Time (of max blood pressure fall)” value amounted to 60 min.

Test system in another series: not given
Experiment: not given
Conditions: not given
Molecule `OCc1ccc(-c2nn(Cc3ccccc3)c3ncncc23)o1` [Example 34] had a melting point of 165 °C.

Molecule `Nc1ncnc2c1c(-c1ccc(CO)o1)nn2Cc1ccccc1` [Example 35] came in with a melting point of 213 °C.

For the molecule `Nc1ncnc2c1c(-c1ccc(CO)o1)nn2Cc1ccccc1F` [Example 36], the melting point is 207 °C.

Take `CN(C)c1ncnc2c1c(-c1ccc(CO)o1)nn2Cc1ccccc1F` [Example 37]: the melting point worked out at 94 °C.

For the molecule `Nc1nc(N)c2c(-c3ccc(CO)o3)nn(Cc3ccccc3F)c2n1` [Example 38], the melting point turned out to be 205 °C.

Take `Nc1nc(-c2ccccc2)nc2c1c(-c1ccc(CO)o1)nn2Cc1ccccc1F` [Example 39]: the melting point worked out at 225 °C.

Regarding `O=CNc1nc(-c2ccccc2)nc2c1c(-c1ccc(CO)o1)nn2Cc1ccccc1F` [Example 40], the melting point came to 189 °C.

`COCCOc1cnc2c(c1)c(-c1ccc(CO)o1)nn2Cc1ccccc1F` [Example 42] gave a melting point of 106 °C.

In the case of `Cc1cc(C)c2c(-c3ccc(CO)o3)nn(Cc3ccccc3)c2n1` [Example 43], the melting point was 155 °C.

`Cc1nc2c(c(-c3ccc(CO)o3)nn2Cc2ccccc2)c(C)c1C` [Example 44] had a melting point of 180 °C.

In turn, `CN(C)[S+]([O-])c1ccc(-c2nn(Cc3ccccc3F)c3ncccc23)o1` (centres unmarked) [Example 50] returned a melting point of 107 °C.

For the molecule `[O-][S+](NCc1ccccc1)c1ccc(-c2nn(Cc3ccccc3F)c3ncccc23)o1` (centres unmarked) [Example 51], the melting point came out at 126 °C.

In turn, `CN1CCC([S+]([O-])c2ccc(-c3nn(Cc4ccccc4F)c4ncccc34)o2)CC1` (centres unmarked) [Example 52] displayed a melting point of 279 °C.

As for `CCCCCCCCN[S+]([O-])c1ccc(-c2nn(Cc3ccccc3F)c3ncccc23)o1` (centres unmarked) [Example 53], the melting point was 69 °C.

For the molecule `[O-][S+](c1ccc(-c2nn(Cc3ccccc3F)c3ncccc23)o1)N1CCOCC1` (centres unmarked) [Example 54], the melting point amounted to 122 °C.

For the molecule `CC(C)N[S+]([O-])c1ccc(-c2nn(Cc3ccccc3F)c3ncccc23)o1` (centres unmarked) [Example 56], the melting point was 136 °C.

As for `[O-][S+](NC1CC1)c1ccc(-c2nn(Cc3ccccc3F)c3ncccc23)o1` (centres unmarked) [Example 57], the melting point stood at 138 °C.

In the case of `CC(C)CN[S+]([O-])c1ccc(-c2nn(Cc3ccccc3F)c3ncccc23)o1` (centres unmarked) [Example 58], the melting point is 109 °C.

`CCCCCCN[S+]([O-])c1ccc(-c2nn(Cc3ccccc3F)c3ncccc23)o1` (centres unmarked) [Example 59]: the melting point was 114 °C.

Turning to `[O-][S+](NC1CCCCCC1)c1ccc(-c2nn(Cc3ccccc3F)c3ncccc23)o1` (centres unmarked) [Example 60], the melting point is 161 °C.

The molecule `CC(C)NS(=O)(=O)c1ccc(-c2nn(Cc3ccccc3F)c3ncccc23)o1` [Example 61] came in with a melting point of 109 °C.

Regarding `[O-][S+](NCc1cccc2ccccc12)c1ccc(-c2nn(Cc3ccccc3F)c3ncccc23)o1` (centres unmarked) [Example 63], the melting point came out at 158 °C.

With `CC(N[S+]([O-])c1ccc(-c2nn(Cc3ccccc3F)c3ncccc23)o1)c1ccccc1` (centres unmarked) [Example 64], the melting point came to 132 °C.

For `[O-][S+](c1ccc(-c2nn(Cc3ccccc3F)c3ncccc23)o1)N1CCCC1` (centres unmarked) [Example 65], the melting point was found to be 107 °C.

The molecule `[O-][S+](Nc1cccc(Cl)c1)c1ccc(-c2nn(Cc3ccccc3F)c3ncccc23)o1` (centres unmarked) [Example 66] gave a melting point of 110 °C.

Take `Cc1coc(-c2nn(Cc3ccccc3F)c3ncccc23)n1` [Example 67]: the melting point stood at 106 °C.

`Cc1nc(-c2nn(Cc3ccccc3F)c3ncccc23)oc1CO` [Example 68]: the melting point came to 145 °C.
